Measurements published in ChEMBL document CHEMBL1201862, “PubChem BioAssay data set” (2004).
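96-well plates; 48 h exposure; 5 concentrations. Endpoints by linear interpolation between flanking doses. Not reached: highest tested concentration assigned. GI50 = concentration required for 50% inhibition of growth.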 The source made the active and inactive calls. Rule as the data show it: active = GI50 up to about 1.1 µM and inactive = higher.

Columns and labels:
Experiment in all cases: NCI tumour cell line growth inhibition, 48 h
NCI-H460 = system: NCI-H460
SF-295 = system: SF-295
OVCAR-8 = system: OVCAR-8
HCT-15 = system: HCT-15
TK-10 = system: TK-10
HCT-116 = system: HCT-116
U-251 = system: U-251
ACHN = system: ACHN
LXFL 529 = system: LXFL 529
HOP-92 = system: HOP-92
KM-20L2 = system: KM-20L2
IGROV-1 = system: IGROV-1
SW-620 = system: SW-620
786-0 = system: 786-0
SF-268 = system: SF-268
SN12C = system: SN12C
HL-60 = system: HL-60
RXF 393 = system: RXF 393
NCI/ADR-RES = system: NCI/ADR-RES
DU-145 = system: DU-145

## Oc1cc2cc(-c3ccccc3)[nH]c2c2ccccc12
NCI-H460
  GI50: 24 µM (inactive)
SF-295
  GI50: 7.1 µM (inactive)
OVCAR-8
  GI50: 32.7 µM (inactive)
HCT-15
  GI50: 27.1 µM
TK-10
  GI50: > 100 µM (inactive)
HCT-116
  GI50: 17.1 µM (inactive)
U-251
  GI50: 32.1 µM (inactive)
ACHN
  GI50: 25 µM (inactive)
LXFL 529
  GI50: 24.5 µM (inactive)
HOP-92
  GI50: 23.8 µM (inactive)
KM-20L2
  GI50: > 96.2 µM (inactive)
IGROV-1
  GI50: 35.6 µM (inactive)
SW-620
  GI50: 34.4 µM (inactive)
786-0
  GI50: > 59 µM (inactive)
SF-268
  GI50: 47.1 µM (inactive)
SN12C
  GI50: 28.8 µM (inactive)
HL-60
  GI50: 8.15 µM (inactive)
RXF 393
  GI50: 27.8 µM (inactive)

## COc1cc(/C=N\c2ccc(C(C)C)cc2)cc(OC)c1OC
NCI-H460
  GI50: 97.3 µM (inactive)
SF-295
  GI50: > 100 µM (inactive)
OVCAR-8
  GI50: > 100 µM (inactive)
HCT-15
  GI50: > 55.5 µM
TK-10
  GI50: > 100 µM (inactive)
HCT-116
  GI50: > 100 µM (inactive)
U-251
  GI50: > 100 µM (inactive)
ACHN
  GI50: > 100 µM (inactive)
LXFL 529
  GI50: 99.5 µM (inactive)
HOP-92
  GI50: > 88.3 µM (inactive)
KM-20L2
  GI50: > 100 µM (inactive)
IGROV-1
  GI50: > 100 µM (inactive)
SW-620
  GI50: > 37 µM (inactive)
786-0
  GI50: > 100 µM (inactive)
SF-268
  GI50: > 100 µM (inactive)
SN12C
  GI50: > 100 µM (inactive)
HL-60
  GI50: > 40.9 µM (inactive)
RXF 393
  GI50: > 100 µM (inactive)

## CC(C)(C)C1CCC2(CC1)CCN(CCCN1CCOCC1)CC2
NCI-H460
  GI50: 39.7 µM (inactive)
SF-295
  GI50: > 47.1 µM (inactive)
OVCAR-8
  GI50: > 81.1 µM (inactive)
HCT-15
  GI50: 22.3 µM
TK-10
  GI50: > 100 µM (inactive)
HCT-116
  GI50: 27.6 µM (inactive)
U-251
  GI50: > 35.2 µM (inactive)
ACHN
  GI50: > 73.3 µM (inactive)
LXFL 529
  GI50: 8.36 µM (inactive)
NCI/ADR-RES
  GI50: > 100 µM (inactive)
HOP-92
  GI50: 17.7 µM (inactive)
KM-20L2
  GI50: 2.18 µM (inactive)
IGROV-1
  GI50: > 65 µM (inactive)
SW-620
  GI50: > 42.8 µM (inactive)
786-0
  GI50: 20.2 µM (inactive)
SF-268
  GI50: > 83 µM (inactive)
SN12C
  GI50: > 86.3 µM (inactive)
HL-60
  GI50: 13.1 µM (inactive)
RXF 393
  GI50: 27.4 µM (inactive)
DU-145
  GI50: > 100 µM (inactive)

## CCOC(=O)C1=C(C)NC(=O)NC1c1ccc(OC)cc1OC (stereo not given)
NCI-H460
  GI50: > 100 µM (inactive)
SF-295
  GI50: > 100 µM (inactive)
OVCAR-8
  GI50: > 100 µM (inactive)
HCT-15
  GI50: > 100 µM
TK-10
  GI50: > 100 µM (inactive)
HCT-116
  GI50: > 100 µM (inactive)
U-251
  GI50: 52.6 µM (inactive)
ACHN
  GI50: > 100 µM (inactive)
LXFL 529
  GI50: > 100 µM (inactive)
HOP-92
  GI50: > 100 µM (inactive)
KM-20L2
  GI50: > 100 µM (inactive)
IGROV-1
  GI50: > 100 µM (inactive)
SW-620
  GI50: > 100 µM (inactive)
786-0
  GI50: > 100 µM (inactive)
SF-268
  GI50: > 100 µM (inactive)
SN12C
  GI50: > 100 µM (inactive)
HL-60
  GI50: > 100 µM (inactive)
RXF 393
  GI50: 72.6 µM (inactive)

## CC(=O)NC(CCCN(Cc1ccccc1)C(=O)NCCCl)C(=O)NCc1ccccc1 (stereo not given)
NCI-H460
  GI50: > 100 µM (inactive)
SF-295
  GI50: > 100 µM (inactive)
OVCAR-8
  GI50: > 100 µM (inactive)
HCT-15
  GI50: > 100 µM
TK-10
  GI50: > 100 µM (inactive)
HCT-116
  GI50: > 100 µM (inactive)
U-251
  GI50: > 100 µM (inactive)
ACHN
  GI50: > 100 µM (inactive)
LXFL 529
  GI50: > 100 µM (inactive)
HOP-92
  GI50: > 79.4 µM (inactive)
KM-20L2
  GI50: > 100 µM (inactive)
IGROV-1
  GI50: > 100 µM (inactive)
SW-620
  GI50: > 100 µM (inactive)
786-0
  GI50: > 100 µM (inactive)
SF-268
  GI50: > 100 µM (inactive)
SN12C
  GI50: > 100 µM (inactive)
HL-60
  GI50: > 100 µM (inactive)
RXF 393
  GI50: > 100 µM (inactive)

## Cc1ccc(S(=O)(=O)N/N=C(\c2nc3ccc(Cl)cc3nc2O)C(O)c2cccc([N+](=O)[O-])c2)cc1 (stereo not given)
NCI-H460
  GI50: > 100 µM (inactive)
SF-295
  GI50: > 100 µM (inactive)
OVCAR-8
  GI50: > 100 µM (inactive)
HCT-15
  GI50: > 100 µM
TK-10
  GI50: > 100 µM (inactive)
HCT-116
  GI50: > 100 µM (inactive)
U-251
  GI50: > 100 µM (inactive)
ACHN
  GI50: > 100 µM (inactive)
LXFL 529
  GI50: > 100 µM (inactive)
HOP-92
  GI50: > 100 µM (inactive)
KM-20L2
  GI50: > 100 µM (inactive)
IGROV-1
  GI50: > 100 µM (inactive)
SW-620
  GI50: > 100 µM (inactive)
786-0
  GI50: > 100 µM (inactive)
SF-268
  GI50: > 100 µM (inactive)
SN12C
  GI50: > 100 µM (inactive)
HL-60
  GI50: > 100 µM (inactive)
RXF 393
  GI50: > 100 µM (inactive)

## CNCCCNc1c2ccccc2nc2cccc([N+](=O)[O-])c12
NCI-H460
  GI50: 0.00047 µM (active)
SF-295
  GI50: 0.0034 µM (active)
OVCAR-8
  GI50: 0.00372 µM (active)
HCT-15
  GI50: 0.00957 µM
TK-10
  GI50: 0.00675 µM (active)
HCT-116
  GI50: 0.00242 µM (active)
U-251
  GI50: 0.00344 µM (active)
ACHN
  GI50: 0.00251 µM (active)
LXFL 529
  GI50: 0.00665 µM (active)
NCI/ADR-RES
  GI50: 0.00861 µM (active)
HOP-92
  GI50: 0.00183 µM (active)
KM-20L2
  GI50: 0.00416 µM (active)
IGROV-1
  GI50: 0.00726 µM (active)
SW-620
  GI50: 0.00321 µM (active)
786-0
  GI50: 0.00323 µM (active)
SF-268
  GI50: 0.00225 µM (active)
SN12C
  GI50: 0.00561 µM (active)
HL-60
  GI50: 0.01 µM (active)
RXF 393
  GI50: 0.000346 µM (active)
DU-145
  GI50: 0.00378 µM (active)
